Reference: patent publication US20190300857A1, “UNDIFFERENTIATED STEM CELL-REMOVING AGENT, AND METHOD FOR REMOVING UNDIFFERENTIATED STEM CELLS” (KEIO UNIVERSITY, priority 2016, published 2019)

Assays:
Assay type in all cases: cell-based
[1] = tested on: Ffl14: human induced pluripotent stem cell (human iPS cell) line; test: Culture of undifferentiated stem cell line in Orlistat-containing medium, ALP staining of living cells; conditions: Orlistat 0, 2, 4, 6, 8, 10 μM, 72 hours, StemFit or mTeSR1, FIG. 3
Method: (§1) Orlistat (manufactured by Sigma, 04139) was added into StemFit medium (manufactured by AJINOMOTO) or mTeSR1 (manufactured by Stem Cell Technologies) so that each of a final concentration became concentrations as shown in FIG. 3 (2 μM, 4 μM, 6 μM, 8 μM, and 10 μM). Therefore a culture medium according to one embodiment of the present invention was obtained. The following three cell lines were cultured for 72 hours in each of a culture medium not containing Orlistat (0 μM) and the culture media containing Orlistat at each of the above final concentrations. • 253G4: human induced pluripotent stem cell (human iPS cell) line • Ffl14: human induced pluripotent stem cell (human iPS cell) line • H9: human embryonic stem cell (human ES cell) line In regard to the activity of alkaline phosphatase (ALP) that the cells have, after 72 hours of culture, AP staining was performed by color development with […] (registered trademark) alkaline phosphatase staining kit (Sigma 86-R), and cells stained red were confirmed as living cells.

[2] = tested on: 253G4: human induced pluripotent stem cell (human iPS cell) line; test: as above; conditions: Orlistat 0, 2, 4, 6, 8, 10 μM, 72 hours, StemFit or mTeSR1, FIG. 3
Method: as §1

[3] = tested on: H9: human embryonic stem cell (human ES cell) line; test: as above; conditions: Orlistat 0, 2, 4, 6, 8, 10 μM, 72 hours, StemFit or mTeSR1, FIG. 3
Method: as §1

[4] = tested on: undifferentiated stem cells expressing OCT4 in cell mixture of cardiomyocytes derived from human iPS cells and human iPS cells; test: Culture of cell mixture of iPS-derived cardiomyocytes and iPS cells in Orlistat-containing medium, OCT4 immunostaining; conditions: Orlistat 10 μM (Orlistat(+)); 72 hours; StemFit or mTeSR1; FIGS. 7 to 8
Method: A cell mixture in a state in which purified and refined cardiomyocytes induced from human iPS cells and human iPS cells coexisted was prepared according to the procedure described above. In the cell mixture, immunostaining against OCT4 was performed. The cell mixture was cultured for 72 hours in StemFit medium (manufactured by AJINOMOTO) or mTeSR1 (manufactured by Stem Cell Technologies) containing Orlistat at a final concentration of 10 μM (Orlistat(+)). As a control, culture was carried out in the same manner in StemFit medium (manufactured by AJINOMOTO) or mTeSR1 (manufactured by Stem Cell Technologies) not containing Orlistat (Orlistat(−)). After culturing for 72 hours, cells expressing OCT4 were detected by immunostaining. In addition, the results of DAPI staining are also shown together. The results of three replicate tests in which the number of colonies of cells expressing Oct4 was quantified based on the results are shown in FIG. 8.

[5] = tested on: human iPS cell line (253G4); test: Culture of human iPS cell line with Orlistat with or without palmitic acid, LIVE/DEAD Assay; conditions: Orlistat 0, 2, 6, 8 μM, 72 hours, FIGS. 13 to 14
Method: Orlistat (manufactured by Sigma, 04139) was added into StemFit medium (manufactured by AJINOMOTO) or mTeSR1 (manufactured by Stem Cell Technologies) so that each of a final concentration became concentrations as shown in FIG. 13 (2 μM, 6 μM, and 8 μM). Therefore a culture medium according to one embodiment of the present invention was obtained. Media obtained by adding palmitic acid (final concentration 50 μM), carnitine (final concentration 0.5 mM), and BSA (final concentration 8.3 μM) to each of the culture medium (0 μM) not containing Orlistat and the culture media containing Orlistat at the above final concentrations; and media obtained by adding only carnitine (final concentration 0.5 mM) and BSA (final concentration 8.3 μM) thereto were prepared. The human iPS cell line (253G4) was cultured for 72 hours in each of the above-mentioned media. After 72 hours of culture, live cells were detected with LIVE/DEAD Assay (L3224, manufactured by Thermo Fisher Scientific).

## CCCCCCCCCCC[C@@H](C[C@@H]1OC(=O)[C@H]1CCCCCC)OC(=O)[C@H](CC(C)C)NC=O [Orlistat, N-formyl-L-leucine-(1S)-1-[[(2S,3S)-3-hexyl-4-oxo-2-oxetanyl]methyl]dodecyl ester]
[1]
  cell death of undifferentiated stem cells (ALP staining): cell death of each undifferentiated stem cell was induced in an Orlistat concentration-dependent manner
[2]
  cell death of undifferentiated stem cells (ALP staining): cell death of each undifferentiated stem cell was induced in an Orlistat concentration-dependent manner
[3]
  cell death of undifferentiated stem cells (ALP staining): cell death of each undifferentiated stem cell was induced in an Orlistat concentration-dependent manner
[4]
  residual undifferentiated stem cells expressing OCT4: no residual undifferentiated stem cells expressing OCT4 were detected
[5]; culture medium (BSA): only carnitine 0.5 mM and BSA 8.3 μM added
  cell death of human iPS cells (LIVE/DEAD Assay): cell death of human iPS cells was induced in an Orlistat concentration-dependent manner
[5]; culture medium (PA-BSA): palmitic acid 50 μM, carnitine 0.5 mM and BSA 8.3 μM added
  cell death of human iPS cells (LIVE/DEAD Assay): cell death of human iPS cells was suppressed
